# Assays:
# [1] = molecular target: HT29 cytosolic GST (Homo sapiens, UniProt P09211); assay: Spectrophotometric GST activity analysis in HT29 cell extracts (CDNB/glutathione); type: biochemical; conditions: HT29 cell extract
# Procedure: GST catalyzes the conjugation of CDNB with glutathione and results in a CDNB-glutathione product with a strong molar absorption at 340 nm. The change of absorption is monitored for 5 min.
# 1 x 10^6 cells are collected and washed once with ice-cold phosphate-buffered saline at 1000 rpm for 10 min at 4°C. Cell pellets are resuspended in 200 µl ice-cold phosphate-buffered saline, and are sonicated for 2 min on ice. The sonicate is then centrifuged at 11750 g, 4°C for 15 min in an Eppendorf Centrifuge, and the supernatant is assayed for GST activity.
# [2] = tested on: MCF-7 ADR cells; assay: Radiosensitizing activity assay, surviving cells counted by trypan blue staining; type: cell-based, Human; conditions: for radiosensitization: MCF-7 ADR cells (mutant p53, high GST content); for % living cells relative to control without drug treatment: MCF-7ADR
# Procedure: (§1) Biological assay for radiosensitizing activity of MDM2 antagonistic compounds: Human tumor cell lines containing wild-type p53 and low levels of GST, such as MCF7 (breast carcinoma) or mutant p53 and a high GST content, such as MCF7 ADR (adriamycin-resistant breast carcinoma) are cultivated in RPMI medium, supplemented with 10% fetal calf serum to a semi-confluent state.
# In order to determine the radiosensitizing activity of selected compounds on these cells a minimal toxic dose was determined as 2Gy (gray: J/kg) with a ^137Cesium source at room temperature. […] Cells were trypsinized and seeded in appropriate dilutions into 6 well plates. Surviving cells were trypsinized after 12-13 days and cell number was determined by staining with trypane blue for living/dead cells. The protocol was established according to Khil et al., 1996, Int. J. Rad. Oncol. Biol. Phys. 34, 375-380.
# [3] = tested on: MCF-7 cells; assay: as above; type: cell-based, Human
# Procedure: as §1
# In order to determine the radiosensitizing activity of selected compounds on these cells a minimal toxic dose was determined as 2Gy (gray: J/kg) with a ^137Cesium source at room temperature. Following irradiation of monolayer cells in exponential growth phase with 2 Gy, cells were incubated with various concentrations of the selected compounds for 2-6 h. Cells were trypsinized and seeded in appropriate dilutions into 6 well plates. Surviving cells were trypsinized after 12-13 days and cell number was determined by staining with trypane blue for living/dead cells. The protocol was established according to Khil et al., 1996, Int. J. Rad. Oncol. Biol. Phys. 34, 375-380.
# [4] = molecular target: T1, MDM2 (Homo sapiens, UniProt Q00987); assay: Interaction of compounds with MDM2; type: binding
# T1 construct: 40 µl of mdm2 1-213 (100nM in PBST) were mixed with 40 µl of the sample; made in house
# T1 sequence (Q00987 1-213): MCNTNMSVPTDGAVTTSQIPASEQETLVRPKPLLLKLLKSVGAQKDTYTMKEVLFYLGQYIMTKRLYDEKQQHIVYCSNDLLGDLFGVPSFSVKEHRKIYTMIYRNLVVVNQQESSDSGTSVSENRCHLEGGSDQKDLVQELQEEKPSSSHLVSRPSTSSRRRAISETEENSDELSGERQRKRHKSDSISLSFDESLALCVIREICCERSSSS
# Procedure: BIACORE analysis of the interaction between MDM2 and p53: To quantify the effect of selected compounds on the p53 binding properties of MDM2 protein biosensor measurements using BIACORE 2000 are performed. BIACORE 2000 is a biosensor system delivered from BIACORE AB. The technology of this biosensor is based on the optical phenomenon of surface plasmon resonance (SRP), which detects changes in refractive index of the solution close to the surface of the sensor chip. The refractive index is directly correlated to the mass concentration in the layer and increases when analyte binds to a surface immobilized ligand. Experiments are performed under continuous flow conditions. The SPR response expressed in resonance units (RU) is recorded continuously versus time resulting in a sensorgram. When one interaction is completed, the surface can be regenerated using solutions which remove bound analyte without affecting the activity of the bound ligand. […] After additional 4 minutes rinsing the surface with PBST buffer, a signal was recorded. By comparing the signals of the samples with those of buffer, the inhibitory effects of the samples could be evaluated. […]
# [5] = 2 Gy + drug 20 µg/ml, drug incubation time following irradiation 0 hours
# [6] = 2 Gy + drug 20 µg/ml, drug incubation time following irradiation 2 hours
# [7] = 2 Gy + drug 20 µg/ml, drug incubation time following irradiation 6 hours
# [8] = drug alone 20 µg/ml, drug incubation time 0 hours
# [9] = drug alone 20 µg/ml, drug incubation time 2 hours
# [10] = drug alone 20 µg/ml, drug incubation time 6 hours
# HT29 cytosolic GST, sequence (P09211 2-210): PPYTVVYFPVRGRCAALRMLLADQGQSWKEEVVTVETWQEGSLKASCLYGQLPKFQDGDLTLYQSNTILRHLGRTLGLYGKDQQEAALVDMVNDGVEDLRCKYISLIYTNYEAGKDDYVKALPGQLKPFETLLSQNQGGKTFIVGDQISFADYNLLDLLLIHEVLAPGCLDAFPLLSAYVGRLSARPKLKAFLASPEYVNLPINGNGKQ
SMILES,radiosensitization [2],"% living cells relative to control without drug treatment [2, 5] [%]","% living cells relative to control without drug treatment [2, 6] [%]","% living cells relative to control without drug treatment [2, 7] [%]","% living cells relative to control without drug treatment [2, 8] [%]","% living cells relative to control without drug treatment [2, 9] [%]","% living cells relative to control without drug treatment [2, 10] [%]","% living cells relative to control without drug treatment [3, 5] [%]","% living cells relative to control without drug treatment [3, 6] [%]","% living cells relative to control without drug treatment [3, 7] [%]","% living cells relative to control without drug treatment [3, 8] [%]","% living cells relative to control without drug treatment [3, 9] [%]","% living cells relative to control without drug treatment [3, 10] [%]",enhancement of irradiation by the drug (factor) ([3]; drug incubated for 2 hours),enhancement of irradiation by the drug (factor) ([3]; drug incubated for 6 hours),other results
"O=C(O)COc1ccc(C(=O)/C=C/c2ccc(Cl)c(Cl)c2)cc1 [LSM 83177, 3,4-dichloro-4'-(carboxymethoxy)chalcone]",Radiosensitizing activity independent of the GST content of the target cell can be observed,100,72.8,48.8,100,87.2,85.7,100,41.8,17,100,64.1,36.4,1.5,2,"activity at 0.2 µg/mL ([1]; concentration 0,2 µg/ml): 100%; activity at 0.04 µg/mL ([1]; concentration 0,04 µg/ml): 100%; activity at 0.4 µg/mL ([1]; concentration 0,4 µg/ml): 100%; activity at 1 µg/mL ([1]; concentration 1 µg/ml): 100%; activity at 2 µg/mL ([1]; concentration 2 µg/ml): 100%; activity at 5 µg/mL ([1]; concentration 5 µg/ml): 73%; activity at 8 µg/mL ([1]; concentration 8 µg/ml): 46%; activity at 10 µg/mL ([1]; concentration 10 µg/ml): 26%; activity at 20 µg/mL ([1]; concentration 20 µg/ml): 0%; activity at 1.3 µg/mL ([1]; concentration 1,3 µg/ml): 100%; activity at 2.5 µg/mL ([1]; concentration 2,5 µg/ml): 95%"
"C=C(CC)C(=O)c1ccc(OCC(=O)O)c(Cl)c1Cl [ethacrynic acid, reference compound]",does not mediate any radiosensitization,100,82.5,133.6,100,88.9,99,100,42.7,20.5,100,52.3,43.1,1.5,2,interaction with MDM2 [4]: interaction of ethacrynic acid with MDM2 was surprisingly observed

# Source: EP0947494A1, “Derivatives of phenoxy acetic acid and phenoxymethyltetrazole having antitumor activity” (F. HOFFMANN-LA ROCHE AG, priority 1998, dated 1999)
